Assays:
[1] = system: O. sulcatus antenna; experiment: GC-EAD antennal response to plant headspace volatiles; parameters: species or system Otiorhynchus sulcatus; conditions: headspace of E. fortunei 'Dart's Blanket' plants and paraffin oil extract; not quantified
Method: (§1) Volatiles were collected from a bio-active extract of Euonymus fortunei ‘Dart's Blanket’ in paraffin oil and from cuttings of mechanically damaged and O. sulcatus-damaged E. fortunei ‘Dart's Blanket’. The antennal response to these plant odours by O. sulcatus were measured by gas chromatography coupled with electroantennogram detection (GC-EAD). Compounds giving an electrophysiological response were tentatively identified by gas chromatography coupled with mass-spectrometry (GC-MS). […] A selection of plant volatiles that gave an electrophysiological reaction on the antenna were tested as single compounds and in several mixtures of two or more compounds on bioactivity using the olfactometer developed specifically to study vine weevil behaviour (see e.g., Van Tol et al., (2002) Physiological Entomology 27, 213-222). A small selection of compounds bioactive in the lab was tested under field conditions in strawberry.
A filtered 10-ml extract of E. fortunei ‘Dart's Blanket’ in paraffin oil (Merck, Uvasol) and four O. sulcatus-damaged and four mechanically damaged 20-cm long cuttings of field-grown E. fortunei ‘Dart's Blanket’ were used for headspace collection. The extract was prepared by crushing 30 g of fresh leaves from the top 15 cm part of stems with 50 ml of paraffin oil on ice. The extract was crushed for approximately 20 min followed by immediately filtering through Whatman No. 90 (diameter 15 cm) paper filter. The filtered Euonymus extract was stored cool until use. Cuttings of Euonymus were mechanically damaged with a scissor by four incisions per leaf three hours prior to headspace collection.
The O. sulcatus-damaged Euonymus cuttings were prepared by offering 10 vine weevils 16 hrs prior to headspace collecting the cuttings. Weevils were removed and cuttings washed with deionized water prior to placing in a fresh 100 ml flask with water for headspace collection. For three days the Euonymus cuttings or a daily refreshed 10-ml paraffin oil extract of Euonymus in an open Petri-dish were placed under a glass bell jar (5 l) in a growth chamber at 20° C. and under long day (L:D=16:8 hr) light conditions. Air was purified by passage through a charcoal filter and drawn at 0.2 l min^−1 through the jar. Volatiles were entrained for a total of 69 hrs. For the collecting of volatiles, Gerstel thermodesorption tubes, filled with 80 mg Tenax TA 20/35 mesh (Grace Alltech), were used. Before use, these tubes were cleaned by rinsing them with 10 ml hexane and, subsequently, flushing them for one hour at 280° C. with 20 ml min purified nitrogen. Each Tenax tube was refreshed after approximately 8 hrs. The volatiles trapped on the Tenax were washed off with 15 ml hexane. […]

[2] = system: O. sulcatus; experiment: Field experiment: attraction of weevils to odor dispensers in a strawberry field; assay type: in vivo, Otiorhynchus sulcatus; conditions: for number of weevils per replicate (O. sulcatus caught): total of whole season, back-transformed mean, 0.4 ml of each compound per dispenser, control 4.3
Method: A selection of single plant compounds (A=(Z)-2-pentenol and B=(E)-2-hexenol) and combinations of plant compounds (C=A+B in ratio 1:1, D=A+methyl eugenol in ratio 1:1, and E=A+B+methyl eugenol in ratio 1:1:1) were tested in a strawberry field (Fragaria×ananassa ‘Tillamook’) for attraction of O. sulcatus. Choice of compounds and mixtures were based on identification of EAD-active compounds from headspace of weevil-damaged E. fortunei ‘Dart's Blanket’ plants and paraffin oil extract of the same Euonymus plant species combined with bioassay results with the EAD-active compounds alone and in several mixtures (Van Tol, unpublished). The compound (Z)-2-pentenol (purity 95%) was obtained from Bedoukian (Danbury, Conn., USA), (E)-2-hexenol (purity >96%) from Acros (Geel, Belgium) and methyl eugenol (purity >98%) from Sigma-Aldrich (St. Louis, Mo., USA). All chemicals were used without further purification. Single compounds and mixtures were introduced in dispensers prior to use and sealed. In each dispenser 0.4 ml of each compound was present.
Plant volatile dispensers were made of 1.5 ml LDPE Pasteur pipettes (Labo Scientific, Ede, the Netherlands). The compounds to be tested were introduced into the pipette, the tip of which was then sealed by heat. Prior to use, the tip of the pipette was cut off at 1 cm above the reservoir portion. […] The dispenser is a simple and cheap existing design which enables a high release profile especially for larger quantities of plant volatiles. […]
(§2) Experiments were performed on a commercial strawberry field in Oregon (USA). […] Traps and dispensers were placed in the fields and monitored for weevils' presence between May and August 2009. […] Traps and plants surrounding each trap-dispenser combination were monitored for weevils weekly. […]

[3] = system: O. sulcatus; experiment: Laboratory (olfactometer) and field tests of attraction; assay type: in vivo, Otiorhynchus sulcatus
Method: as §1
as §2, with “(USA). Five different treatments (A, B, C, D and E) and one control were tested in the field. The control consisted of an empty dispenser.” for “(USA).”

| SMILES | antennal (EAD) response [1] | attraction of O. sulcatus in strawberry (in words) [2] | number of weevils per replicate (O. sulcatus caught) [2] | attractive to O. sulcatus in laboratory and field tests (in words) [3] |
| --- | --- | --- | --- | --- |
| C=C/C=C(\C)CCC=C(C)C [DMNT] | EAD-positive |  |  |  |
| CC/C=C\CO [Treatment A, (Z)-2-pentenol] | EAD-active | attractive | 11.3 | attractive |
| CCC/C=C/CO [Treatment B, (E)-2-hexenol] | EAD-active |  | 4.3 |  |
| CC/C=C\CCO [(Z)-3-hexenol] | EAD-active |  |  |  |

From patent US20110302823A1, “ATTRACTANT COMPOSITIONS FOR WEEVILS OF THE GENUS OT[…] USES THEREOF” (Stichting Dienst Landbouwkundig Onderzoek, priority 2010, published 2011)
